The values that follow come from patent publication US9029325B2, “Amylin analogues and pharmaceutical compositions thereof” (Novo Nordisk A/S, priority 2011, dated 2015).

Starred links: 1 amine or outer side, 2 acyl side, 3 side chain; linkers in the order of their positions; H or OH if unused. Positions of bridges follow the written chain, without caps; N, C: chain ends. Residues, ends and D or L forms follow the SMILES beside them. *: point of attachment. C20 diacid = O=C(O)CCCCCCCCCCCCCCCCCCC(=O)*; C18 diacid = O=C(O)CCCCCCCCCCCCCCCCC(=O)*; γGlu = O=C(O)[C@H](CCC(=O)[*:2])N[*:1]

A short description of this assay: Assay (I) efficacy testing on appetite (food intake), ad libitum fed rat model. The class given is in vivo, Sprague Dawley (SD) rats. The source says: Sprague Dawley (SD) rats from Taconic Europe, Denmark are used for the experiments. The rats have a body weight 200-250 g at the start of experiment. The rats arrive at least 10-14 days before start of experiment to allow acclimatization to experimental settings. During this period the animals are handled at least 2 times. After arrival rats are housed individually for one week in a reversed light/dark phase (meaning that lights are off during daytime and on during nighttime) […]. Since rats are normally active and eat their major part of their daily food intake during the dark period, rats are dosed in the morning right before lights are turned off. This set-up results in the lowest data variation and highst test sensitivity. The experiment is conducted in the rats' home cages and rats have free access to food and water througout the acclimatization period and the experiment period. Each dose of derivative is tested in a group of 5-8 rats. A vehicle group of 6-8 rats is included in each set of testing. Rats are dosed once according to body weight with a 0.01-3 mg/kg solution administered intraperitoneally (ip), orally (po) or subcutaneously (sc). The time of dosing is recorded for each group. After dosing, the rats are returned to their home cages, where they then have access to food and water. The food consumption is recorded individually continuously by on-line registration or manually every hour for 7 hours, and then after 24 h and sometimes 48 h. At the end of the experimental session, the animals are euthanised.
The individual data are recorded in Microsoft excel sheets. Outliers are excluded after applying the Grubbs statistical evaluation test for outliers, and the result is presented graphically using the GraphPad Prism program.

With `CC[C@H](C)[C@H](NC(=O)[C@@H]1CCCN1C(=O)CNC(=O)[C@H](Cc1ccccc1)NC(=O)[C@H](CC(N)=O)NC(=O)[C@H](CC(N)=O)NC(=O)[C@H](CO)NC(=O)[C@H](CO)NC(=O)[C@H](CCCNC(=N)N)NC(=O)[C@H](Cc1c[nH]cn1)NC(=O)[C@H](CC(C)C)NC(=O)[C@H](Cc1ccccc1)NC(=O)[C@H](CCC(=O)O)NC(=O)[C@H](C)NC(=O)[C@H](CC(C)C)NC(=O)[C@H](CCCNC(=N)N)NC(=O)[C@H](CCC(N)=O)NC(=O)[C@@H](NC(=O)[C@H](C)NC(=O)[C@@H]1CSSC[C@H](NC(=O)[C@H](CCC(=O)O)NC(=O)CC[C@H](NC(=O)CCCCCCCCCCCCCCCCCCC(=O)O)C(=O)O)C(=O)N[C@@H](CC(N)=O)C(=O)N[C@@H]([C@@H](C)O)C(=O)N[C@@H](C)C(=O)N[C@@H]([C@@H](C)O)C(=O)N1)[C@@H](C)O)C(=O)N[C@@H](CC(C)C)C(=O)N1CCC[C@H]1C(=O)N1CCC[C@H]1C(=O)N[C@H](C(=O)N[C@@H](CC(N)=O)C(=O)N[C@H](C(=O)NCC(=O)N[C@@H](CO)C(=O)N[C@@H](CC(N)=O)C(=O)N[C@H](C(=O)N1CCC[C@H]1C(N)=O)[C@@H](C)O)C(C)C)[C@@H](C)O` [Example 10, N-alpha-[(S)-4-Carboxy-4-(19-carboxynonadecanoylamino)butyryl]-[Glu1, Glu14, His17, Arg18, Pro37]-pramlintide] ({C20 diacid-γGlu}-ECNTATCATQRLAEFLHRSSNNFGPILPPTNVGSNTP-NH2; disulfide 2-7), for the setting “0-24 h”, the “Food intake reduction 0-24 h 3 nmol/kg (%)” value is 50%. The “Food intake reduction 24-48 h 3 nmol/kg (%)” value (24-48 h) was determined as 40%.

As for `CC[C@H](C)[C@H](NC(=O)[C@@H]1CCCN1C(=O)CNC(=O)[C@H](Cc1ccccc1)NC(=O)[C@H](CC(N)=O)NC(=O)[C@H](CC(N)=O)NC(=O)[C@H](CO)NC(=O)[C@H](CO)NC(=O)[C@H](Cc1c[nH]cn1)NC(=O)[C@H](Cc1c[nH]cn1)NC(=O)[C@H](CC(C)C)NC(=O)[C@H](Cc1ccccc1)NC(=O)[C@H](CCC(=O)O)NC(=O)[C@H](C)NC(=O)[C@H](CC(C)C)NC(=O)[C@H](CCCNC(=N)N)NC(=O)[C@H](CCC(N)=O)NC(=O)[C@@H](NC(=O)[C@H](C)NC(=O)[C@@H]1CSSC[C@H](NC(=O)[C@H](Cc2c[nH]cn2)NC(=O)[C@H](Cc2c[nH]cn2)NC(=O)[C@H](Cc2c[nH]cn2)NC(=O)CC[C@H](NC(=O)CCCCCCCCCCCCCCCCCCC(=O)O)C(=O)O)C(=O)N[C@@H](CC(N)=O)C(=O)N[C@@H]([C@@H](C)O)C(=O)N[C@@H](C)C(=O)N[C@@H]([C@@H](C)O)C(=O)N1)[C@@H](C)O)C(=O)N[C@@H](CC(C)C)C(=O)N1CCC[C@H]1C(=O)N1CCC[C@H]1C(=O)N[C@H](C(=O)N[C@@H](CC(N)=O)C(=O)N[C@H](C(=O)NCC(=O)N[C@@H](CO)C(=O)N[C@@H](CC(N)=O)C(=O)N[C@H](C(=O)N[C@@H](Cc1ccc(O)cc1)C(N)=O)[C@@H](C)O)C(C)C)[C@@H](C)O` [Example 11, N-alpha-[(S)-4-Carboxy-4-(19-carboxynonadecanoylamino)butyryl]-His-His-[His1,Glu14,His17]-pramlintide] ({C20 diacid-γGlu}-HHHCNTATCATQRLAEFLHHSSNNFGPILPPTNVGSNTY-NH2; disulfide 4-9), the “Food intake reduction 0-24 h 30 nmol/kg (%)” value (30 nmol/kg, 0-24 h) worked out at 87%. The “Food intake reduction 24-48 h 30 nmol/kg (%)” value (30 nmol/kg, 24-48 h) was found to be 92%.

Consider `CC[C@H](C)[C@H](NC(=O)[C@@H]1CCCN1C(=O)CNC(=O)[C@H](Cc1ccccc1)NC(=O)[C@H](CC(N)=O)NC(=O)[C@H](CC(N)=O)NC(=O)[C@H](CO)NC(=O)[C@H](CO)NC(=O)[C@H](Cc1c[nH]cn1)NC(=O)[C@H](Cc1c[nH]cn1)NC(=O)[C@H](CC(C)C)NC(=O)[C@H](Cc1ccccc1)NC(=O)[C@H](CCC(=O)O)NC(=O)[C@H](C)NC(=O)[C@H](CC(C)C)NC(=O)[C@H](CCCNC(=N)N)NC(=O)[C@H](CCC(N)=O)NC(=O)[C@@H](NC(=O)[C@H](C)NC(=O)[C@@H]1CSSC[C@H](NC(=O)[C@H](CCCCN)NC(=O)CC[C@H](NC(=O)CCCCCCCCCCCCCCCCCCC(=O)O)C(=O)O)C(=O)N[C@@H](CC(N)=O)C(=O)N[C@@H]([C@@H](C)O)C(=O)N[C@@H](C)C(=O)N[C@@H]([C@@H](C)O)C(=O)N1)[C@@H](C)O)C(=O)N[C@@H](CC(C)C)C(=O)N1CCC[C@H]1C(=O)N1CCC[C@H]1C(=O)N[C@H](C(=O)N[C@@H](CC(N)=O)C(=O)N[C@H](C(=O)NCC(=O)N[C@@H](CO)C(=O)N[C@@H](CC(N)=O)C(=O)N[C@H](C(=O)N[C@@H](Cc1ccc(O)cc1)C(N)=O)[C@@H](C)O)C(C)C)[C@@H](C)O` [Example 27, N-alpha-[(S)-4-Carboxy-4-(19-carboxynonadecanoylamino)butyryl]-[Glu14,His17]-pramlintide] ({C20 diacid-γGlu}-KCNTATCATQRLAEFLHHSSNNFGPILPPTNVGSNTY-NH2; disulfide 2-7), for which the “Food intake reduction 0-24 h 3 nmol/kg (%)” value (0-24 h) was 56%. For the same compound, under “24-48 h”, the “Food intake reduction 24-48 h 3 nmol/kg (%)” value amounted to 53%.

In the case of `CC[C@H](C)[C@H](NC(=O)[C@@H]1CCCN1C(=O)CNC(=O)[C@H](Cc1ccccc1)NC(=O)[C@H](CC(N)=O)NC(=O)[C@H](CC(N)=O)NC(=O)[C@H](CO)NC(=O)[C@H](CO)NC(=O)[C@H](Cc1c[nH]cn1)NC(=O)[C@H](Cc1c[nH]cn1)NC(=O)[C@H](CC(C)C)NC(=O)[C@H](Cc1ccccc1)NC(=O)[C@H](CCC(=O)O)NC(=O)[C@H](C)NC(=O)[C@H](CC(C)C)NC(=O)[C@H](CCCNC(=N)N)NC(=O)[C@H](CCC(N)=O)NC(=O)[C@@H](NC(=O)[C@H](C)NC(=O)[C@@H]1CSSC[C@H](NC(=O)[C@H](CCCCN)NC(=O)[C@H](CCC(=O)O)NC(=O)CC[C@H](NC(=O)CCCCCCCCCCCCCCCCC(=O)O)C(=O)O)C(=O)N[C@@H](CC(N)=O)C(=O)N[C@@H]([C@@H](C)O)C(=O)N[C@@H](C)C(=O)N[C@@H]([C@@H](C)O)C(=O)N1)[C@@H](C)O)C(=O)N[C@@H](CC(C)C)C(=O)N1CCC[C@H]1C(=O)N1CCC[C@H]1C(=O)N[C@H](C(=O)N[C@@H](CC(N)=O)C(=O)N[C@H](C(=O)NCC(=O)N[C@@H](CO)C(=O)N[C@@H](CC(N)=O)C(=O)N[C@H](C(=O)N[C@@H](Cc1ccc(O)cc1)C(N)=O)[C@@H](C)O)C(C)C)[C@@H](C)O` [Example 42, N-alpha-[(S)-4-Carboxy-4-(17-carboxyheptadecanoylamino)butyryl]-Glu-[Glu14, His17]-pramlintide] ({C18 diacid-γGlu}-EKCNTATCATQRLAEFLHHSSNNFGPILPPTNVGSNTY-NH2; disulfide 3-8 (inferred); C-terminus assumed), for the setting “0-24 h”, the “Food intake reduction 0-24 h 3 nmol/kg (%)” value stood at 45%. In addition, the “Food intake reduction 24-48 h 3 nmol/kg (%)” value (24-48 h) worked out at 5%.
